# Experimental data taken from patent US20200033346A1, “DIAGNOSTIC AND THERAPEUTIC METHODS FOR KRAS POSITIVE CANCERS” (The Board of Trustees of the Leland Stanford Junior …, priority 2017, published 2020).
# Columns and labels:
# [1] = test system: FASN and SCD gene expression; experiment: Real-time PCR of FASN and SCD mRNA in human lung cancer cell lines after inhibitor treatment; format: cell-based; details: qPCR
# Description: Cell culture. The human non-small cell lung carcinoma cell lines, A549 and H1299, were used for in vitro experiments. A549 cells were maintained in Dulbecco's Modified Eagle Medium (DMEM) supplemented with 10% fetal bovine serum (FBS), 1% L-glutamine, 1% sodium pyruvate, 1% nonessential amino acids, and Antibiotic-Antimycotic. H1299 cells were maintained in RPMI 1640 medium supplemented with 10% FBS, 50 μM β-mercaptoethanol, and Antibiotic-Antimycotic. Trypsin-EDTA was used to passage both A549 and H1299 cells. All cell culture reagents were purchased from Gibco® (Thermo Fisher Scientific Inc.). Small molecule inhibitors. […] FTS is a synthetic famesylcysteine mimetic which interferes with the anchoring of KRAS to the plasma membrane. […] Various levels of these drugs were administered to cells in culture over a time course in order to assess dose-response relationships. RNA extraction and cDNA synthesis. Total RNA was isolated from cells and lung tissue using the QIAGEN RNeasy Mini kit. RNA quality and concentration were assessed by the NanoDrop® spectrophotometer. The RNA was reverse transcribed into cDNA using the SuperScript® III First-Strand Synthesis System (Invitrogen). […] Amplicons were detected by using SYBR® Green I dye as fluorophore. […] For each gene, a threshold cycle (Ct) number, which represents the number of cycles required to reach the threshold fluorescence, was determined. […]
# FASN = FASN (Homo sapiens, UniProt P49327); details: background description; cited from earlier work
# tumor burden = experiment: Tumor burden in patients on clinical trial of atorvastatin; format: in vivo, human; details: eight days of treatment
# MEK1 phospho-isoforms = experiment: NIA of MEK isoforms in NHL patients before and after atorvastatin; format: in vivo, human
# Description: Nine patients were treated on clinical trial of HMG co-A reductase inhibitor atorvastatin. NIA was used to measure changes in MEK isoforms before (day 1) and after eight days of treatment.
# Nine patients were treated on clinical trial of HMG co-A reductase inhibitor atorvastatin. NIA was used to measure changes in MEK isoforms before (day 1) and after 8 days of treatment.
# ERK1/2 phospho-isoforms = experiment: NIA analysis of ERK isoforms in tumor FNAs of mice with MYC-induced lymphoma; format: in vivo, mouse; details: FIG. 18
# Description: (§1) Nanoimmunoassay (NIA). NIA was performed using the Nanopro 1000 (Protein Simple) to detect the phosphorylation states of ERK1 and ERK2 in lysates generated from lung tumor tissue. NIA is a highly sensitive capillary-based isoelectric focusing method that uses antibody detection to quantify protein isoforms as well as characterize post-translational protein modifications such as phosphorylation. The final protein concentration loaded into each capillary of the Nanopro 1000 was 0.1 μg/μL. The primary rabbit antibody for ERK1/2 (Millipore) was diluted 1:300 and the primary mouse antibody for the loading control, Hsp70 (Santa Cruz Biosciences), was diluted 1:500. The anti-mouse and anti-rabbit secondary antibodies, conjugated to horse radish peroxidase, were diluted 1:100. Chemiluminescence signal was recorded following the addition of luminol and peroxide detection reagents. Analysis of NIA data was performed in Compass software (Protein Simple).
# Mice with MYC-induced lymphoma were treated with FTS. Tumors from mouse untreated or after 4 days of treatment were sampled by fine needle aspirate. FNAs were flash frozen and batch analyzed. NIA was used to analyze ERK isoforms using NIA.
# ERK1/2 phosphorylation = experiment: NIA analysis of ERK isoforms in FNAs from transgenic lymphoma; format: in vivo, mouse; details: Day 4 of FTS treatment, FIG. 22
# Description: as §1
# Tumors were sampled by fine needle aspirate prior to treatment (UnTx), and […] after 1-8 days of treatment with FTS.
# Comparison with dox is shown. Mice were either treated with FTS (BC2FTS) or BCL2 inactivation (BCL2Dox). Tumors were sampled by fine needle aspirate prior to treatment (UnTx), and […] after 1-8 days of treatment with FTS.
# BCL2-induced lymphoma = experiment: Tumor growth in mice with BCL2-induced lymphoma; format: in vivo, mouse; details: RAS inactivation by FTS together with BCL2 inactivation by DOX; FIG. 21
# Text: Inactivation of both BCL2 and Ras inhibits tumor growth more effectively than either oncogene alone: mice with BCL2-induced lymphoma. Plots of tumor area over time in mice cohorts: untreated (UnTx), with BCL2 inactivated (BCL2 off), Ras inactivated (Ras off, or both BCL2 and Ras inactivated (BCL2off,Ras off).
# Erk pathway = experiment: NIA of ERK isoforms in head and neck squamous cell carcinoma before and after rigosertib; format: in vivo, human; details: one head and neck cancer patient; pre- vs post-treatment; FIG. 32
# Description: Patients receive 2 cycles of 2 weeks of treatment with 1 week off regimen. For Cycle 1, Day 14 only, 5 patients with HNSCC will undergo biopsy or FNA for nano-proteomic profiling of total- and phospho-proteins in pathways inhibited by rigosertib, ERK and loading control. For Cycle 1 Day 14 and Cycle 2 Day 14, pharmacokinetic blood analyses are performed. […] A patient with head and neck cancer treated on clinical trial of rigosertib had tumor sampled before (pre-treatment) and after (post-treatment) treatment. NIA was used to measure ERK isforms.
# H1299 = experiment: Cell proliferation upon FASN inhibition (PI assay, hemocytometer cell counting), H1299; format: cell-based, human; details: cerulenin 1-10 μg/mL, FIG. 6B
# Text: (§2) Cell culture. The human non-small cell lung carcinoma cell lines, A549 and H1299, were used for in vitro experiments. A549 cells were maintained in Dulbecco's Modified Eagle Medium (DMEM) supplemented with 10% fetal bovine serum (FBS), 1% L-glutamine, 1% sodium pyruvate, 1% nonessential amino acids, and Antibiotic-Antimycotic. […] Trypsin-EDTA was used to passage both A549 and H1299 cells. All cell culture reagents were purchased from Gibco® (Thermo Fisher Scientific Inc.).
# (§3) Small molecule inhibitors. […] FTS is a synthetic famesylcysteine mimetic which interferes with the anchoring of KRAS to the plasma membrane. […] Various levels of these drugs were administered to cells in culture over a time course in order to assess dose-response relationships.
# (§4) Cell counting. A volume of cells was removed from culture medium and mixed with an equal volume of 0.4% Trypan blue stain. Then 10 μL was taken out and placed into a hemocytometer for cell counting. Viable cell counts were used as a measure of cell proliferation.
# A549 = experiment: Cell proliferation upon FASN inhibition (PI assay, hemocytometer cell counting), A549; format: cell-based, human; details: cerulenin 1-10 μg/mL, FIG. 6A
# Text: as §2, §3, §4
# FASN, sequence (P49327 whole entry, species assumed): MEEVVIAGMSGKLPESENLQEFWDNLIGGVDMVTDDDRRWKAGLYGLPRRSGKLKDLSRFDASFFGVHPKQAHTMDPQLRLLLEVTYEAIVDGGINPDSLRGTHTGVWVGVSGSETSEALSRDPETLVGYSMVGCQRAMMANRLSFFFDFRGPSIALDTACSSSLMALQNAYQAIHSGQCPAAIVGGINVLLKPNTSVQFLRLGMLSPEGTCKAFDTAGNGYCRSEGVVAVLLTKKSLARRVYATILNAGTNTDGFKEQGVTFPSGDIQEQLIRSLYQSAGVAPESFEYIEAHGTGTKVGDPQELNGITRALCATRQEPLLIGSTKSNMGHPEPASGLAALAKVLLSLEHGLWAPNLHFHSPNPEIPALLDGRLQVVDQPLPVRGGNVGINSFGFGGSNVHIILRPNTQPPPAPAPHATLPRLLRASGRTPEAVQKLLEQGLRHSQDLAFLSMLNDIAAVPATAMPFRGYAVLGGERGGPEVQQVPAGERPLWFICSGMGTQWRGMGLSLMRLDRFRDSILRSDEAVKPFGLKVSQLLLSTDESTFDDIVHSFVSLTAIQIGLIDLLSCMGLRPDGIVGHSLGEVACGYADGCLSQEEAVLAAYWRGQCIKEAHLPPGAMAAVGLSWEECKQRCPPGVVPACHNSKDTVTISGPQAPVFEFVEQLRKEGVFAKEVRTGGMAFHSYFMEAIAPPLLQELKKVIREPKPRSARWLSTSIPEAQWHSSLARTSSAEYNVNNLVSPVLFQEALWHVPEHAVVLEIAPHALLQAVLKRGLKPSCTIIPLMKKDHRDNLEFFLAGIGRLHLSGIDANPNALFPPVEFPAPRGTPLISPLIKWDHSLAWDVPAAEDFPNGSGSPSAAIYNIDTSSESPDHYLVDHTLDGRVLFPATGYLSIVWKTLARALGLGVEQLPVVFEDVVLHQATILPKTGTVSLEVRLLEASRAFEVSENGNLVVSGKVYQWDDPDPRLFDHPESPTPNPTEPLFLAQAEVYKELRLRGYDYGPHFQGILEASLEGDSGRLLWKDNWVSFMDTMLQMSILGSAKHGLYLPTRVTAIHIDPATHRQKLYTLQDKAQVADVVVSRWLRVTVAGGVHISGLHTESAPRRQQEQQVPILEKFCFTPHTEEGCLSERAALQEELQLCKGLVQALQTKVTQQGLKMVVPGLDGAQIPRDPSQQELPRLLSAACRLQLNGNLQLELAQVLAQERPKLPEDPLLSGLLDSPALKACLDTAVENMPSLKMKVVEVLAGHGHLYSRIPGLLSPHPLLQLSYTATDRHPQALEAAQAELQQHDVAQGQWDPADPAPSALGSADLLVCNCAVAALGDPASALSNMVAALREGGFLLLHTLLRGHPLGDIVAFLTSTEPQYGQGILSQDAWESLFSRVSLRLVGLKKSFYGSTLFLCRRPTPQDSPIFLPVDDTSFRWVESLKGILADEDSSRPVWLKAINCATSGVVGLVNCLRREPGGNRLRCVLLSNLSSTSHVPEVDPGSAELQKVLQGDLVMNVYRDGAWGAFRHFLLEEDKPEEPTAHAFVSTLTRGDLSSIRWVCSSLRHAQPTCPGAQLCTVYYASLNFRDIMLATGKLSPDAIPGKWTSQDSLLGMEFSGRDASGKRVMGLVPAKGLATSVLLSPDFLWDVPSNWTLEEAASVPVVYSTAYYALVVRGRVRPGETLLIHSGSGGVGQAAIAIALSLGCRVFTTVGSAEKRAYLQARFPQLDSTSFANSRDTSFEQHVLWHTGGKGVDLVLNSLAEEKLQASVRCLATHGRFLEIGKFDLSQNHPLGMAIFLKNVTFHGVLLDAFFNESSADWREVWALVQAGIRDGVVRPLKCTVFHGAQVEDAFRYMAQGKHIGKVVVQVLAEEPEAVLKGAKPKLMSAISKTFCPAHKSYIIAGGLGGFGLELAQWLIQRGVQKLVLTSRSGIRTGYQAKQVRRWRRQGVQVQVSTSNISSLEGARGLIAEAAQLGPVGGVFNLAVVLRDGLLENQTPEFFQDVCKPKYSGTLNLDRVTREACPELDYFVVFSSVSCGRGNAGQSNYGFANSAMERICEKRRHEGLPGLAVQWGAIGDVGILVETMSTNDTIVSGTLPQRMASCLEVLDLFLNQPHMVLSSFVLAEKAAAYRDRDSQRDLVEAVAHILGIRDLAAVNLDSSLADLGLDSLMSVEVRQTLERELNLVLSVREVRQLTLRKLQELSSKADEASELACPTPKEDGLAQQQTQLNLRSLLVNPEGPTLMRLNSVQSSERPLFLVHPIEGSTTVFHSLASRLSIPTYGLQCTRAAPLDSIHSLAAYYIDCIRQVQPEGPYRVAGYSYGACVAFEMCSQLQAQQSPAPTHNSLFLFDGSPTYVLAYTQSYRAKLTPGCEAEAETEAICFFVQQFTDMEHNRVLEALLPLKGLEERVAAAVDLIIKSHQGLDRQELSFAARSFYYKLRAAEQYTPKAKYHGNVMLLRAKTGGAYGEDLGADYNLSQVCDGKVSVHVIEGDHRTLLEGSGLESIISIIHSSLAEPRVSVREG
compound,measurement,setting,value
O=C(Nc1ccc2[nH]nc(-c3ccncc3)c2c1)[C@@H]1CCN(CC(=O)N2CCN(c3ccc(-c4ncccn4)cc3)CC2)C1 [SCH772984],Relative mRNA expression of FASN and SCD upon ERK inhibition,"[1]; A549 and H1299 cells, SCH772984 at 125 ng/mL, FIG. 5A",suppression of FASN and SCD
epigallocatechin-3-gallate [EGCG],FASN inhibitory potency,FASN,high micromolar
CC(C)c1c(C(=O)Nc2ccccc2)c(-c2ccccc2)c(-c2ccc(F)cc2)n1CC[C@@H](O)C[C@@H](O)CC(=O)O [atorvastatin],Tumor burden,tumor burden; patient A,tumor burden decreased
same,Tumor burden,tumor burden; patient B,no change in tumor burden
same,Patients with significant changes in di-phospho-MEK1,"MEK1 phospho-isoforms; day 1 vs after 8 days of treatment, FIG. 27",four of nine
same,Patients with significant changes in tri-phospho-MEK1,"MEK1 phospho-isoforms; day 1 vs after eight days of treatment, FIG. 26",four of nine
same,Patients with significant changes in Mono-phospho-MEK1,"MEK1 phospho-isoforms; day 1 vs after eight days of treatment, FIG. 28",one of nine
Cc1ccnc(NS(=O)(=O)c2ccc(NC(=O)Nc3ccc(S(=O)(=O)Nc4nccc(C)n4)cc3)cc2)n1 [GSK837149A],FASN inhibitory potency,FASN,"low, nanomolar"
"CC(C)=CCC/C(C)=C/CC/C(C)=C/CSc1ccccc1C(=O)O [FTS, S-trans,trans-farnesylthiosalicylic acid]",Total ERK1/2 level,ERK1/2 phospho-isoforms; FNA after 4 days of treatment,did not change
same,Phospho-ERK isoforms,ERK1/2 phospho-isoforms; FNA on day 4 of treatment,all phospho-ERK isoforms decreased
same,Decrease of ERK1/2 phosphorylation,ERK1/2 phosphorylation,35%
same,Gene expression of FASN and SCD upon KRAS inhibition,"[1]; human lung cancer cell line, FTS at 5-20 ng/mL, FIG. 5B",decreased the gene expression of FASN and SCD in a dose-dependent manner
same,Tumor growth inhibition,BCL2-induced lymphoma,inhibits tumor growth more effectively than inactivating either oncogene alone
COc1cc(OC)c(/C=C/S(=O)(=O)Cc2ccc(OC)c(NCC(=O)O)c2)c(OC)c1 [Rigosertib],Erk pathway activity (ERK isoforms by NIA),Erk pathway,decreases Erk pathway
C/C=C/C/C=C/CCC(=O)[C@H]1O[C@H]1C(N)=O [Cerulenin],Cell proliferation,H1299,decreased proliferation
same,Cell proliferation,A549,decreased proliferation
C=C1C(=O)OC(CCCCCCCC)C1C(=O)O (centres unmarked) [C75],FASN inhibitory potency,FASN,"weak, irreversible inhibitor"
